Laboratory results: patent publication US5366726A (priority 1992, dated 1994)

Experiments:
Pneumocystis carinii [1] = conditions: in vivo; cited from earlier work
[2] = TMP-SMX oral or parenteral; pentamidine isethionate parenteral; cited from earlier work
Pneumocystis carinii [3] = conditions: human, in vivo; cited from earlier work
Pneumocystis carinii [4] = experiment: Example 8: randomized clinical trial, prevention of PCP; format: in vivo, human; conditions: AZT use

NCCC[C@](N)(C(=O)O)C(F)F [DFMO, α-difluoromethylornithine]
efficacy in rat PCP model (Pneumocystis carinii [1]): not efficacious

N=C(N)c1ccc(OCCCCCOc2ccc(C(=N)N)cc2)cc1 [pentamidine isethionate]
patients developing severe toxicity requiring discontinuation [2]: approximately 50%

COc1cc(NCc2ccc3nc(N)nc(N)c3c2C)cc(OC)c1OC [trimetrexate]
relapse rates within one month (Pneumocystis carinii [3]): high

Cc1cn([C@H]2C[C@H](N=[N+]=[N-])[C@@H](CO)O2)c(=O)[nH]c1=O [zidovudine]
independent reduction of PCP risk, Cox models (Pneumocystis carinii [4]): two-fold
